The source made the active and inactive calls.
How the values were obtained:
Focal adhesion kinase 1 = Focal adhesion kinase 1 (Homo sapiens, UniProt Q05397); assay type: functional;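 note: measured as one member of a kinome panel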
[1] = biological target: Tyrosine-protein kinase BTK (Homo sapiens, UniProt Q06187); assay type: functional
[2] = biological target: Vascular endothelial growth factor receptor 2 (Homo sapiens, UniProt P35968); assay type: functional
[3] = biological target: Serine/threonine-protein kinase Nek4 (Homo sapiens, UniProt P51957); assay type: functional
Sequence of Serine/threonine-protein kinase Nek4 (P51957 whole entry): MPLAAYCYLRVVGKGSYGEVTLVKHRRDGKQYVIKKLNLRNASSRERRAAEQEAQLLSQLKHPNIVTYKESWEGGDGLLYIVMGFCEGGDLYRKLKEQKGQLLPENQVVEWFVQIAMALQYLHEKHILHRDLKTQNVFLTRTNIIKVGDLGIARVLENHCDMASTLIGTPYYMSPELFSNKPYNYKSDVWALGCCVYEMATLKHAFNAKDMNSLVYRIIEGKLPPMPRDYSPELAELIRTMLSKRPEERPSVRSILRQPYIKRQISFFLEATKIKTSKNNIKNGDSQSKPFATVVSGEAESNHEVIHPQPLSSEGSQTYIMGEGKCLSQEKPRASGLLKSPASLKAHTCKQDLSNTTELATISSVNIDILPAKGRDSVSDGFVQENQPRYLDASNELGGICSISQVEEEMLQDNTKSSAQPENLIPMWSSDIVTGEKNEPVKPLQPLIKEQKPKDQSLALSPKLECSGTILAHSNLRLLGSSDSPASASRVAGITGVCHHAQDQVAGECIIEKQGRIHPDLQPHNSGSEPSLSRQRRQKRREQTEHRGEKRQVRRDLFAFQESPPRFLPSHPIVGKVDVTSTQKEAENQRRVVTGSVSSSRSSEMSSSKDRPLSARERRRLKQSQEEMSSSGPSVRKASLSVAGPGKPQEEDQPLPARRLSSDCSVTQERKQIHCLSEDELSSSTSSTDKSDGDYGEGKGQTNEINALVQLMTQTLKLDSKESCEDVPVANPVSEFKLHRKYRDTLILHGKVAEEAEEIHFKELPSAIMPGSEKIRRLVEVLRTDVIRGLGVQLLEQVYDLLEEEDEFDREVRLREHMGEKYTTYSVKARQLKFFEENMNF

[4] = biological target: Mitogen-activated protein kinase kinase kinase 10 (Homo sapiens, UniProt Q02779); assay: Navigating the Kinome. Panel member name: MAP3K10; assay type: functional
[5] = biological target: Proto-oncogene tyrosine-protein kinase ROS (Homo sapiens, UniProt P08922); assay type: functional;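 note: ROS1 tested as one member of a kinome-wide kinase panel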
[6] = biological target: Serine/threonine-protein kinase Nek2 (Homo sapiens, UniProt P51955); assay type: functional
Sequence of Serine/threonine-protein kinase Nek2 (P51955 whole entry): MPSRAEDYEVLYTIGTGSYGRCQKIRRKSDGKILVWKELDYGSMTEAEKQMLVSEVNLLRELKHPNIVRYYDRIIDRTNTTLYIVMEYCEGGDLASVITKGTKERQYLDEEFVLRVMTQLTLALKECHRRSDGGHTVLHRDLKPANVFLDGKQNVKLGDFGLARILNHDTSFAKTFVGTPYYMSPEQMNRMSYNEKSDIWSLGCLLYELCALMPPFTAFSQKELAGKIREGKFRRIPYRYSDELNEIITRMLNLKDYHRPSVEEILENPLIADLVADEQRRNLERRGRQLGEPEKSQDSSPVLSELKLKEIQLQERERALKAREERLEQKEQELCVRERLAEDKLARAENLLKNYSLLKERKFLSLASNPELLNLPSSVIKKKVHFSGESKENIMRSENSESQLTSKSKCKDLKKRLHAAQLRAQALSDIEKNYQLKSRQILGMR

Activated CDC42 kinase 1 = Activated CDC42 kinase 1 (Homo sapiens, UniProt Q07912); assay: Navigating the Kinome. Panel member name: ACK1; assay type: functional
[7] = biological target: Serine/threonine-protein kinase PLK4 (Homo sapiens, UniProt O00444); assay type: functional;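 note: PLK4 measured as one member of a kinome-wide kinase profiling panel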
Sequence of Serine/threonine-protein kinase PLK4 (O00444 whole entry): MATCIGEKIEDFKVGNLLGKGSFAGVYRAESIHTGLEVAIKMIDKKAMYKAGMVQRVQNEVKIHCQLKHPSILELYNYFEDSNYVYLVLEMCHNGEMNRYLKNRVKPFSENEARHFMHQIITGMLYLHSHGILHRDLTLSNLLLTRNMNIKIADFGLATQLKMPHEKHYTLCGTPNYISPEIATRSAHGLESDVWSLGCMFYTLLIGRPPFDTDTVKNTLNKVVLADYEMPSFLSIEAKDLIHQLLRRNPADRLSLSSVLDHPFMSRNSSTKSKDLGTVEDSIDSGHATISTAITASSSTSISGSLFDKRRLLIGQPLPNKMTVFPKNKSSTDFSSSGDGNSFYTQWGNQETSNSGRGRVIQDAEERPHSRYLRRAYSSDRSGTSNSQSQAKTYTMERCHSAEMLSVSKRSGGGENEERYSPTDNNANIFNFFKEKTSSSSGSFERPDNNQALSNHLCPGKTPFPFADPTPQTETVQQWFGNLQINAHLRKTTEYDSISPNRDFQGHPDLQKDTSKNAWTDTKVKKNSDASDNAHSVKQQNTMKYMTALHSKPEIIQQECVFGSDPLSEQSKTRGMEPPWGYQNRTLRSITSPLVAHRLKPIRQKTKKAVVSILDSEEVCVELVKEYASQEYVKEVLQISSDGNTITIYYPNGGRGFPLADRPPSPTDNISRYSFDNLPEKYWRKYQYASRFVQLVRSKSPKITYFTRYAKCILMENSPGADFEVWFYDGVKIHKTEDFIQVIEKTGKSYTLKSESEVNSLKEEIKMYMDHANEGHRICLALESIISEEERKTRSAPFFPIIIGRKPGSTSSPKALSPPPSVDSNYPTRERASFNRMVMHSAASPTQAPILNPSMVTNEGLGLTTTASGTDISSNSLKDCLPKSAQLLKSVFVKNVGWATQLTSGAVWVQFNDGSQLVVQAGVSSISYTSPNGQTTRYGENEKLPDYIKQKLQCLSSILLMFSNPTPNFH

[8] = biological target: Platelet-derived growth factor receptor alpha (Homo sapiens, UniProt P16234); assay: Navigating the Kinome. Panel member name: PDGFRA; assay type: functional
[9] = biological target: cAMP-dependent protein kinase catalytic subunit PRKX (Homo sapiens, UniProt P51817); assay type: functional
[10] = biological target: Rho-associated protein kinase 1 (Homo sapiens, UniProt Q13464); assay type: functional;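 note: measured within a broad kinome-wide panel profiling many kinases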
[11] = biological target: RAC-gamma serine/threonine-protein kinase (Homo sapiens, UniProt Q9Y243); assay type: functional
[12] = biological target: Megakaryocyte-associated tyrosine-protein kinase (Homo sapiens, UniProt P42679); assay type: functional;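 note: affinity measured as one member of a kinase panel (Navigating the Kinome) against MATK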
[13] = biological target: Dual specificity protein kinase CLK2 (Homo sapiens, UniProt P49760); assay type: functional
[14] = biological target: Calcium/calmodulin-dependent protein kinase type 1 (Homo sapiens, UniProt Q14012); assay type: functional
[15] = biological target: Tyrosine-protein kinase Fyn (Homo sapiens, UniProt P06241); assay type: functional
Sequence of Tyrosine-protein kinase Fyn (P06241 whole entry): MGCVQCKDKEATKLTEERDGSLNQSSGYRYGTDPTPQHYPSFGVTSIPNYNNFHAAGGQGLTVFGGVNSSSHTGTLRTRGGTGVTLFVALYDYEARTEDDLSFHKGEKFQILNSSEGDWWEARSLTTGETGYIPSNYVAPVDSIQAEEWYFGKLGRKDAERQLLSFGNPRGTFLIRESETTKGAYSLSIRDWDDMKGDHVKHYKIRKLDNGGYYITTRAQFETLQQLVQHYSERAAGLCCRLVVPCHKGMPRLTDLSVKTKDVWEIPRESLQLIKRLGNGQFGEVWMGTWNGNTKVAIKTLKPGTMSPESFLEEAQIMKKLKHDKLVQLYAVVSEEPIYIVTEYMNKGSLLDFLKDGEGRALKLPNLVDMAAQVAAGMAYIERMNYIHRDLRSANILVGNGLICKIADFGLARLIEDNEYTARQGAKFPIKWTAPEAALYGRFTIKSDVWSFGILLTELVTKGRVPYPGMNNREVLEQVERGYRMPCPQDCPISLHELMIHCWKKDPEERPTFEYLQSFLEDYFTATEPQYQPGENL

[16] = biological target: Serine/threonine-protein kinase Chk1 (Homo sapiens, UniProt O14757); assay type: functional;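 note: measured as one member of a kinome-wide kinase profiling panel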
[17] = biological target: Inhibitor of nuclear factor kappa-B kinase subunit epsilon (Homo sapiens, UniProt Q14164); assay: Navigating the Kinome. Panel member name: IKBKE; assay type: functional
[18] = biological target: Serine/threonine-protein kinase pim-2 (Homo sapiens, UniProt Q9P1W9); assay type: functional;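 note: value comes from a broad kinase panel profiling study in which PIM2 was one of the panel members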
[19] = biological target: ALK tyrosine kinase receptor (Homo sapiens, UniProt Q9UM73); assay type: functional;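 note: ALK tested as one member of a kinase panel screen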
[20] = biological target: Tyrosine-protein kinase JAK2 (Homo sapiens, UniProt O60674); assay type: functional;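 note: JAK2 tested as one member of a kinase panel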
Sequence of Tyrosine-protein kinase JAK2 (O60674 whole entry, canonical isoform): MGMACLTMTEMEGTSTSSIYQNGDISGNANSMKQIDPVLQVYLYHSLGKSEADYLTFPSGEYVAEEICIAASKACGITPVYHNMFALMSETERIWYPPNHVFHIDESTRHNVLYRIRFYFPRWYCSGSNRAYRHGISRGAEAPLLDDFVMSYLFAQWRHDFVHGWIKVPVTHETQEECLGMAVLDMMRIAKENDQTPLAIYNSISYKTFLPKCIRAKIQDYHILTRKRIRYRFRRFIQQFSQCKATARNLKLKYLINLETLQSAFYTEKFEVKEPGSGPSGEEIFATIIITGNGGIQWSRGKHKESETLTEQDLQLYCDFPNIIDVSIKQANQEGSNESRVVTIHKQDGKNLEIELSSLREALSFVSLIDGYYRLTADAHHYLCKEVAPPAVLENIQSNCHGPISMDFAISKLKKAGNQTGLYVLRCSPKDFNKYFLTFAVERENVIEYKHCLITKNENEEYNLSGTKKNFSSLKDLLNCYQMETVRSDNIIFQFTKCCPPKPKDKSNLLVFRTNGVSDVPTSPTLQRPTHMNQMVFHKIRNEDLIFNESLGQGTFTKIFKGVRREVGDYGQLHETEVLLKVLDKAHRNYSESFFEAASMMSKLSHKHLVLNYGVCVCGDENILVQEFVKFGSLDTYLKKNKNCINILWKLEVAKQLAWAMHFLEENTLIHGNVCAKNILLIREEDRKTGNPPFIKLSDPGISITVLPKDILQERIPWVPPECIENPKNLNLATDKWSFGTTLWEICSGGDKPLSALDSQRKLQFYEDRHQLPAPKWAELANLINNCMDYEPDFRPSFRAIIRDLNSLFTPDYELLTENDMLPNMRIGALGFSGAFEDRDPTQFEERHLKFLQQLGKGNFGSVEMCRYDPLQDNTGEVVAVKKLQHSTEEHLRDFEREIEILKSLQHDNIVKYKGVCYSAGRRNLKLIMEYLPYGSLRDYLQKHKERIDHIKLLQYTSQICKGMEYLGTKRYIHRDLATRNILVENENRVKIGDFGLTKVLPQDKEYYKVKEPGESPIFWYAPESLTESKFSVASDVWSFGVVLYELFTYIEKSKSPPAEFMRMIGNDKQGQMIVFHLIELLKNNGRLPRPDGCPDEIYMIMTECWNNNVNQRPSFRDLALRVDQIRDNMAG

[21] = biological target: Casein kinase I isoform gamma-1 (Homo sapiens, UniProt Q9HCP0); assay type: functional;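 note: measured as the CSNK1G1 member of a kinome profiling panel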
[22] = biological target: Tyrosine-protein kinase Lck (Homo sapiens, UniProt P06239); assay type: functional;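 note: lck was assayed as one member of a kinase panel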
[23] = biological target: MAP kinase-activated protein kinase 3 (Homo sapiens, UniProt Q16644); assay type: functional;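 note: value comes from a kinome-wide profiling panel in which MAPKAPK3 is one of the panel members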
[24] = biological target: Cyclin-dependent kinase 5 (Homo sapiens, UniProt Q00535); assay type: functional;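 note: CDK5 measured as one member of a kinase profiling panel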
Sequence of Cyclin-dependent kinase 5 (Q00535 whole entry): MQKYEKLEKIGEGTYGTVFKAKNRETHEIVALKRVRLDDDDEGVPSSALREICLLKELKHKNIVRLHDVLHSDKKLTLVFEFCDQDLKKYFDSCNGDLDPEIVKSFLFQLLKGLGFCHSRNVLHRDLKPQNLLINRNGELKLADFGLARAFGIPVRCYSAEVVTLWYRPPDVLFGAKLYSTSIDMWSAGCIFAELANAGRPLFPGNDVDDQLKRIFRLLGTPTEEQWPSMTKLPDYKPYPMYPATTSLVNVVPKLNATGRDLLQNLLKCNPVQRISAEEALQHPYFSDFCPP

[25] = biological target: T1, Histone-lysine N-methyltransferase NSD2 (Homo sapiens, UniProt O96028); assay type: biochemical
T1 sequence (O96028 whole entry): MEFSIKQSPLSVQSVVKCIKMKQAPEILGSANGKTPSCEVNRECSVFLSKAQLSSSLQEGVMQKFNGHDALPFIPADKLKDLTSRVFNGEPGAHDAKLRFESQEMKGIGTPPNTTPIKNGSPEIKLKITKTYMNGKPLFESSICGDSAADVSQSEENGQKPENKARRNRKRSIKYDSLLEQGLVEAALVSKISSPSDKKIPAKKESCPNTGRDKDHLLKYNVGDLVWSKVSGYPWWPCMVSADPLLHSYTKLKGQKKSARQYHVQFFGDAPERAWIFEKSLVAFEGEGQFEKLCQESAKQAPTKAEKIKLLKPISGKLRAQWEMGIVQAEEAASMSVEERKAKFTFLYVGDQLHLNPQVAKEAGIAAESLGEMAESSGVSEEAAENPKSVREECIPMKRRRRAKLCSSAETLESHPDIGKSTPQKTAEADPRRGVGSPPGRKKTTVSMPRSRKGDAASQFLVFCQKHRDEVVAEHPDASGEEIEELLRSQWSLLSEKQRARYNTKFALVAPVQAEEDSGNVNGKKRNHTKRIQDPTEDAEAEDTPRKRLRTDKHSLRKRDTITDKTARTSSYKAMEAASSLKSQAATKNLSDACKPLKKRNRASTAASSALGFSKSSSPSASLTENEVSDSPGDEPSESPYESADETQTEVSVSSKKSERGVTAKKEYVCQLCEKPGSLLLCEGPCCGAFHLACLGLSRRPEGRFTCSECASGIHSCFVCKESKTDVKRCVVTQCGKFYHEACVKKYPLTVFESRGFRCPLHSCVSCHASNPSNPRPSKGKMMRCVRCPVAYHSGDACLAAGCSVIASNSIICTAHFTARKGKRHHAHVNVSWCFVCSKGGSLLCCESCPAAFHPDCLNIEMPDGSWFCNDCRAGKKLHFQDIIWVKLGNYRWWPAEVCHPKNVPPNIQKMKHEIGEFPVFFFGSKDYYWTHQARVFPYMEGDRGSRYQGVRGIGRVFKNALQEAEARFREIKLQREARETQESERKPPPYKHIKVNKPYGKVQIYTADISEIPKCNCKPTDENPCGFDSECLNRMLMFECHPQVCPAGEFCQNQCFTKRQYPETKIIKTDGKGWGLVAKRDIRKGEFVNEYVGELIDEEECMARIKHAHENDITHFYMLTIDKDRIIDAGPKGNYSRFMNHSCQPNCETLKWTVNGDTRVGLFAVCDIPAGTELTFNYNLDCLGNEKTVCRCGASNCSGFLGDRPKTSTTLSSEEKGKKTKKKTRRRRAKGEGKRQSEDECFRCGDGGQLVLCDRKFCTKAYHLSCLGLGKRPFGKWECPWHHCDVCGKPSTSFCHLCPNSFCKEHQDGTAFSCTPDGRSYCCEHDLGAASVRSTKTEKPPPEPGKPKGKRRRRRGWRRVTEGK

[26] = NIH-3T3 fibroblast cytotoxicity, dose response, cytotoxicity control, cell-based, fluorescence, Alamar Blue, secondary assay (AID 2327); assay type: functional;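 note: NIH-3T3 mouse fibroblasts cultured with fluconazole at 8 µg/mL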

Sequence of Tyrosine-protein kinase BTK (Q06187 whole entry): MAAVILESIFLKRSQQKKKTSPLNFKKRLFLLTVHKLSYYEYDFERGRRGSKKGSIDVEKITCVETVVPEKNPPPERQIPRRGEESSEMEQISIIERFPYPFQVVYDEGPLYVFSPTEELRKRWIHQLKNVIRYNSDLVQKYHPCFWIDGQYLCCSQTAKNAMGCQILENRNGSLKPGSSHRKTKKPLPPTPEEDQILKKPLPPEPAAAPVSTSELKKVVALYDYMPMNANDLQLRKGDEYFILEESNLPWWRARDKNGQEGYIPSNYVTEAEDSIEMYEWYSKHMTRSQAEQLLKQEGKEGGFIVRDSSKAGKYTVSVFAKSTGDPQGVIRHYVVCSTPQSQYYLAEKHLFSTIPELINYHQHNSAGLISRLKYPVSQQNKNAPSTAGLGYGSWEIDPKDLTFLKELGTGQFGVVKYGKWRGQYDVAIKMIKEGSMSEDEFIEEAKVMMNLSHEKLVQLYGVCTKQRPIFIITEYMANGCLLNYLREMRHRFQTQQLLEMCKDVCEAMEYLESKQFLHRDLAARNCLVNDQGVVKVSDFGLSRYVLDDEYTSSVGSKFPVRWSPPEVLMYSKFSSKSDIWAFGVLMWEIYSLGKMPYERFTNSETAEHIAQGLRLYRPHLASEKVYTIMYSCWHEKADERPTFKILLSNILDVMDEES

SMILES: NCCCn1cc(-c2cc(-c3cc4ccccc4s3)c3[nH]ncc3c2)c2nc(N)ncc21
- Ki (Focal adhesion kinase 1): > 5010 nM (inactive)
- Ki [1]: > 3980 nM (inactive)
- Ki [2]: > 5010 nM (inactive)
- Ki [3]: 200 nM (active)
- Ki [4]: 126 nM (active)
- Ki [5]: 200 nM (active)
- Ki [6]: > 10000 nM (inactive)
- Ki (Activated CDC42 kinase 1): > 3980 nM (inactive)
- Ki [7]: 63.1 nM (active)
- Ki [8]: > 2000 nM (inactive)
- Ki [9]: 3.16 nM (active)
- Ki [10]: 79.4 nM (active)
- Ki [11]: 251 nM (active)
- Ki [12]: > 2000 nM (inactive)
- Ki [13]: > 2510 nM (inactive)
- Ki [14]: 3160 nM (active)
- Ki [15]: > 3160 nM (inactive)
- Ki [16]: 1260 nM (active)
- Ki [17]: > 3160 nM (inactive)
- Ki [18]: 100 nM (active)
- Ki [19]: > 3980 nM (inactive)
- Ki [20]: > 2000 nM (inactive)
- Ki [21]: 2510 nM (active)
- Ki [22]: > 3980 nM (inactive)
- Ki [23]: 1580 nM (active)
- Ki [24]: 1580 nM (active)

SMILES: CCCn1nc([N+](=O)[O-])c(C(C#N)c2nc3ccccc3s2)c(Cl)c1=O (stereo not drawn)
- AC50 [25]: > 20000 nM (inactive)
- EC50 [26]: > 160000 nM (inactive)

From ChEMBL document CHEMBL1201862, “PubChem BioAssay data set” (2004)
